What was measured:
Assay type in all cases: functional
Conditions in all cases: route intraperitoneal
Mus musculus [1] = assay: Antiobesity activity in Sabra mouse assessed as change in food consumption at 1 mg/kg, ip administered on day 8, 9, 10, 11, 14, 18, 24 and 32 measured after 4 weeks relative to control
Mus musculus [2] = assay: Antiobesity activity in high fat diet fed C57BL/6 mouse assessed as reduction in body weight at 1 mg/kg, ip administered on day 3, 6, 8, 9, 10 measured on day 10 relative to control; design: scale not given: the % may be the effect or the level left
Mus musculus [3] = assay: Antiobesity activity in Sabra mouse assessed as change in body weight at 1 mg/kg, ip administered on day 8, 9, 10, 11, 14, 18, 24 and 32 measured on day 14 relative to control
Mus musculus [4] = assay: Antiobesity activity in Sabra mouse assessed as change in body weight at 1 mg/kg, ip administered on day 8, 12 and 43 measured on day 36 relative to control
Mus musculus [5] = assay: Antiobesity activity in Sabra mouse assessed as change in body weight at 1 mg/kg, ip administered on day 8, 12 and 43 measured on day 50 relative to control
Mus musculus [6] = assay: Enhancement of motor activity in Sabra mouse at 10 mg/kg, ip administered on day 6 to 10 by open field test relative to control

SMILES: CCCCCCCC/C=C\CCCCCCCC(=O)N[C@H](CO)C(C)C
- Activity (Mus musculus [1]): 90.3%
- Activity (Mus musculus [2]): -6.3%
- Activity (Mus musculus [3]): -1.8%
- Activity (Mus musculus [4]): -6.9%
- Activity (Mus musculus [5]): -6%
- Activity (Mus musculus [6]): 30%

Reference: ChEMBL document CHEMBL2321853, “Novel acylethanolamide derivatives that modulate body weight through enhancement of hypothalamic pro-opiomelanocortin (POMC) and/or decreased neuropeptide Y (NPY)” (J Med Chem, 2013)
